# Source: US20250213555A1, “SUBSTITUTED TETRAHYDROFURAN ANALOGS AS MODULATORS OF SODIUM CHANNELS” (VERTEX PHARMACEUTICALS INCORPORATED, priority 2021, published 2025)
# pIC50: −log10 of the molar value.
# Biological target: human Nav 1.8 (Homo sapiens, UniProt Q9Y5Y9)
# Assay: E-VIPR assay detecting and measuring Nav inhibition properties
# Format: cell-based
# Settings: HEK cells expressing a truncated form of human Nav 1.8; compound numbers without "*" (not marked as run in the presence of human serum); read-out: measured IC50 value in the E-VIPR Assay
# Summary of the method: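 Nav inhibition was read by E-VIPR: cells were electrically stimulated while coumarin/oxonol FRET emissions were recorded. Cells were HEK expressing a truncated human Nav 1.8 and co-transduced with KIR2.1, and were assayed in 25% final human serum.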
# human Nav 1.8, sequence (Q9Y5Y9 126-399 limits assumed): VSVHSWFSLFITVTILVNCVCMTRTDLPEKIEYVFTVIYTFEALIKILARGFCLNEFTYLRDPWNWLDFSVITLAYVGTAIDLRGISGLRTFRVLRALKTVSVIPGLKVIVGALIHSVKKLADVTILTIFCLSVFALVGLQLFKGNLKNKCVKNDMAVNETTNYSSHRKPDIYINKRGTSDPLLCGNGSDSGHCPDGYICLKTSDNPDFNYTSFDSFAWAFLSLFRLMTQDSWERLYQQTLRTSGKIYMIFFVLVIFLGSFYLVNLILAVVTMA
# human Nav 1.8, sequence (Q9Y5Y9 660-890 limits assumed): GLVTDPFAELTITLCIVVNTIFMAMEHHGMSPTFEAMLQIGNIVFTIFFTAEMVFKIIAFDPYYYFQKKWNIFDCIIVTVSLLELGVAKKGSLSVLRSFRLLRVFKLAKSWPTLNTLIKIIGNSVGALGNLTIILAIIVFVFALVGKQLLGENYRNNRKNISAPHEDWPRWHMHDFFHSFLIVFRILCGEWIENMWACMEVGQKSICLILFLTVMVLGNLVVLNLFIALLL
# human Nav 1.8, sequence (Q9Y5Y9 1148-1722 limits assumed): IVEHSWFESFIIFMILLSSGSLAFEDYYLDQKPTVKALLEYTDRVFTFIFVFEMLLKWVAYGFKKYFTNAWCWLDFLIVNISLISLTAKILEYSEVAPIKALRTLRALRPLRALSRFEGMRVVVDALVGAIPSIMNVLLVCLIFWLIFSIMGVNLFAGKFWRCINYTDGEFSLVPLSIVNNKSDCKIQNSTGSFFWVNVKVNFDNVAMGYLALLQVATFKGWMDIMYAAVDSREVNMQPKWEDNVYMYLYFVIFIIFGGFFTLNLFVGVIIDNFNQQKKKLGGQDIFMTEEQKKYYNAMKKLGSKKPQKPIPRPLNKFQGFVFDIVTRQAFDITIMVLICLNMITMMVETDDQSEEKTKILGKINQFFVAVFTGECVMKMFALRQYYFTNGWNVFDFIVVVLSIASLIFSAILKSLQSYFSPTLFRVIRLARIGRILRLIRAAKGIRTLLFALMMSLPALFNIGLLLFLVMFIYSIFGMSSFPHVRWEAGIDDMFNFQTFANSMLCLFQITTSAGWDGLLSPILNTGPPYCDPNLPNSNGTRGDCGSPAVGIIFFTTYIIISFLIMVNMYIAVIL
row,Compound,pIC50
1,"C[C@H]1[C@@H](c2ccc(F)c(F)c2OCCCN2CCC2)[C@H](C(=O)Nc2ccnc(C(N)=O)c2)O[C@@]1(C)C(F)(F)F [Compound 134, 4-((2R,3S,4S,5R)-3-(2-(3-(azetidin-1-yl)propoxy)-3,4-difluorophenyl)-4,5-dimethyl-5-(trifluoromethyl)tetrahydrofuran-2-carboxamido)picolinamide]",7.00 to 8.00
2,C=C(COC)COc1c([C@H]2[C@H](C(=O)Nc3ccnc(C(N)=O)c3)O[C@@](C)(C(F)(F)F)[C@H]2C)ccc(F)c1F [Compound 135],7.00 to 8.00
3,"CNC(=O)c1cc(NC(=O)[C@@H]2O[C@@](C)(C(F)(F)F)[C@@H](C)[C@H]2c2ccc(F)c(F)c2OCCN2CC3(COC3)C2)ccn1 [Compound 136, 4-((2R,3S,4S,5R)-3-(2-(2-(2-oxa-6-azaspiro[3.3]heptan-6-yl)ethoxy)-3,4-difluorophenyl)-4,5-dimethyl-5-(trifluoromethyl)tetrahydrofuran-2-carboxamido)-N-methylpicolinamide]",7.00 to 8.00
4,"C[C@@H](O)COc1c([C@H]2[C@H](C(=O)Nc3ccnc(C(N)=O)c3)O[C@@](C)(C(F)(F)F)[C@H]2C)ccc(F)c1F [Compound 152, 4-((2R,3S,4S,5R)-3-(3,4-difluoro-2-((R)-2-hydroxypropoxy)phenyl)-4,5-dimethyl-5-(trifluoromethyl)tetrahydrofuran-2-carboxamido) picolinamide]",7.00 to 8.00
5,"COCC(CO)COc1c([C@H]2[C@H](C(=O)Nc3ccnc(C(N)=O)c3)O[C@@](C)(C(F)(F)F)[C@H]2C)ccc(F)c1F (stereo partly drawn) [Compound 155, 4-((2R,3S,4S,5R)-3-(3,4-difluoro-2-(3-hydroxy-2-(methoxymethyl)propoxy)phenyl)-4,5-dimethyl-5-(trifluoromethyl)tetrahydrofuran-2-carboxamido) picolinamide]",7.00 to 8.00
6,"COC1CC(Oc2c([C@H]3[C@H](C(=O)Nc4ccnc(C(N)=O)c4)O[C@@](C)(C(F)(F)F)[C@H]3C)ccc(F)c2F)C1 (stereo partly drawn) [Compound 162, 4-((2R,3S,4S,5R)-3-(3,4-difluoro-2-(3-methoxycyclobutoxy)phenyl)-4,5-dimethyl-5-(trifluoromethyl)tetrahydrofuran-2-carboxamido)picolinamide]",> 8.00
7,"C[C@H]1[C@@H](c2ccc(F)c(F)c2OC2CC(O)C2)[C@H](C(=O)Nc2ccnc(C(N)=O)c2)O[C@@]1(C)C(F)(F)F (stereo partly drawn) [Compound 163, 4-((2R,3S,4S,5R)-3-(3,4-difluoro-2-(3-hydroxycyclobutoxy)phenyl)-4,5-dimethyl-5-(trifluoromethyl)tetrahydrofuran-2-carboxamido)picolinamide]",> 8.00
8,"CC1C(c2ccc(F)c(F)c2OC2CC(O)C2)C(C(=O)Nc2ccnc(C(N)=O)c2)OC1(C)C(F)(F)F [Compound 166, 4-((2R,3S,4S,5R)-3-(3,4-difluoro-2-((1s,3R)-3-hydroxycyclobutoxy)phenyl)-4,5-dimethyl-5-(trifluoromethyl)tetrahydrofuran-2-carboxamido)picolinamide]",> 8.00
9,"C[C@H]1[C@@H](c2ccc(F)c(F)c2OCC(CO)C(F)(F)F)[C@H](C(=O)Nc2ccnc(C(N)=O)c2)O[C@@]1(C)C(F)(F)F (stereo partly drawn) [Compound 169, 4-((2R,3S,4S,5R)-3-(3,4-difluoro-2-(3,3,3-trifluoro-2-(hydroxymethyl)propoxy)phenyl)-4,5-dimethyl-5-(trifluoromethyl)tetrahydrofuran-2-carboxamido)picolinamide]",> 8.00
10,"CC(=O)C1CC(Oc2c([C@H]3[C@H](C(=O)Nc4ccnc(C(N)=O)c4)O[C@@](C)(C(F)(F)F)[C@H]3C)ccc(F)c2F)C1 (stereo partly drawn) [Compound 170, 4-((2R,3S,4S,5R)-3-(2-(3-acetylcyclobutoxy)-3,4-difluorophenyl)-4,5-dimethyl-5-(trifluoromethyl)tetrahydrofuran-2-carboxamido)picolinamide]",> 8.00
11,"C[C@H]1[C@@H](c2ccc(F)c(F)c2OC2CS(=O)(=O)C2)[C@H](C(=O)Nc2ccnc(C(N)=O)c2)O[C@@]1(C)C(F)(F)F [Compound 171, 4-((2R,3S,4S,5R)-3-(2-((1,1-dioxidothietan-3-yl)oxy)-3,4-difluorophenyl)-4,5-dimethyl-5-(trifluoromethyl)tetrahydrofuran-2-carboxamido)picolinamide]",6.00 to 7.00

# Other lines, results leading:
row,pIC50,Compound
1,> 8.00,"C[C@H]1[C@@H](c2ccc(F)c(F)c2OCCCN2CC(F)C2)[C@H](C(=O)Nc2ccnc(C(N)=O)c2)O[C@@]1(C)C(F)(F)F [Compound 133, 4-((2R,3S,4S,5R)-3-(3,4-difluoro-2-(3-(3-fluoroazetidin-1-yl)propoxy)phenyl)-4,5-dimethyl-5-(trifluoromethyl)tetrahydrofuran-2-carboxamido)picolinamide]"
2,> 8.00,C[C@H](O)COc1c([C@H]2[C@H](C(=O)Nc3ccnc(C(N)=O)c3)O[C@@](C)(C(F)(F)F)[C@H]2C)ccc(F)c1F [Compound 153]
3,> 8.00,"COc1c(Cl)cc([C@H]2[C@H](C(=O)Nc3ccnc(C(N)=O)c3)O[C@@](C)(C(F)(F)F)[C@H]2C)c(OC)c1F [Compound 154, 4-((2R,3S,4S,5R)-3-(5-chloro-3-fluoro-2,4-dimethoxyphenyl)-4,5-dimethyl-5-(trifluoromethyl)tetrahydrofuran-2-carboxamido) picolinamide]"
4,> 8.00,"C[C@H]1[C@@H](c2ccc(F)c(F)c2OCCC2(O)CC2)[C@H](C(=O)Nc2ccnc(C(N)=O)c2)O[C@@]1(C)C(F)(F)F [Compound 156, 4-((2R,3S,4S,5R)-3-(3,4-difluoro-2-(2-(1-hydroxycyclopropyl)ethoxy)phenyl)-4,5-dimethyl-5-(trifluoromethyl)tetrahydrofuran-2-carboxamido)picolinamide]"
5,> 8.00,"C[C@@H](Oc1c([C@H]2[C@H](C(=O)Nc3ccnc(C(N)=O)c3)O[C@@](C)(C(F)(F)F)[C@H]2C)ccc(F)c1F)C1COC1 [Compound 157, 4-((2R,3S,4S,5R)-3-(3,4-difluoro-2-((R)-1-(oxetan-3-yl)ethoxy)phenyl)-4,5-dimethyl-5-(trifluoromethyl)tetrahydrofuran-2-carboxamido)picolinamide]"
6,> 8.00,"C[C@H](Oc1c([C@H]2[C@H](C(=O)Nc3ccnc(C(N)=O)c3)O[C@@](C)(C(F)(F)F)[C@H]2C)ccc(F)c1F)C1COC1 [Compound 158, 4-((2R,3S,4S,5R)-3-(3,4-difluoro-2-((S)-1-(oxetan-3-yl)ethoxy)phenyl)-4,5-dimethyl-5-(trifluoromethyl)tetrahydrofuran-2-carboxamido)picolinamide]"
7,> 8.00,"C[C@H]1[C@@H](c2ccc(F)c(F)c2OCC2(O)CC2)[C@H](C(=O)Nc2ccnc(C(N)=O)c2)O[C@@]1(C)C(F)(F)F [Compound 159, 4-((2R,3S,4S,5R)-3-(3,4-difluoro-2-((1-hydroxycyclopropyl)methoxy)phenyl)-4,5-dimethyl-5-(trifluoromethyl)tetrahydrofuran-2-carboxamido)picolinamide]"
8,> 8.00,"C[C@H]1[C@@H](c2ccc(F)c(F)c2OCc2cn[nH]c2)[C@H](C(=O)Nc2ccnc(C(N)=O)c2)O[C@@]1(C)C(F)(F)F [Compound 168, 4-((2R,3S,4S,5R)-3-(2-((1H-pyrazol-4-yl)methoxy)-3,4-difluorophenyl)-4,5-dimethyl-5-(trifluoromethyl)tetrahydrofuran-2-carboxamido)picolinamide]"
